# Experimental data from ChEMBL document CHEMBL5576038, “Design of a novel long-acting dual GLP-1/GIP receptor agonist” (Bioorg Med Chem, 2024).
# pEC50: −log10 of the molar value. Where a SMILES comes first, the peptide text is derived from it. [ ]: non-standard residue; d: D form. The star is where a group is joined. X7 = O=C(O)CCCCCCCCCCCCCCCCCCC(=O)NCCOCCOCC(=O)N[C@@H](CCC(=O)N[C@H](CCC(=O)N[C@H](CCCCNC(=O)C*)C(=O)O)C(=O)O)C(=O)O; X5 = O=C(O)CCCCCCCCCCCCCCCCCCC(=O)N[C@@H](CCC(=O)NCCOCCOCC(=O)NCCOCCOCC(=O)N[C@@H](CCCCNC(=O)C*)C(=O)O)C(=O)O; X8 = O=C(O)CCCCCCCCCCCCCCCCC(=O)N[C@@H](CCC(=O)NCCOCCOCC(=O)NCCOCCOCC(=O)N[C@@H](CCCCNC(=O)C*)C(=O)O)C(=O)O; Aib = CC(C)(N)C(=O)O
# Experiments:
# [1] = molecular target: T1, Gastric inhibitory polypeptide receptor (Homo sapiens, UniProt P48546); assay: Agonist activity at human GIPR expressed in CHO cells assessed as increase in cAMP production incubated for 30 mins by Eu-cAMP tracer based microplate reader analysis; assay type: functional, cell-based
# T1 sequence (P48546 whole entry): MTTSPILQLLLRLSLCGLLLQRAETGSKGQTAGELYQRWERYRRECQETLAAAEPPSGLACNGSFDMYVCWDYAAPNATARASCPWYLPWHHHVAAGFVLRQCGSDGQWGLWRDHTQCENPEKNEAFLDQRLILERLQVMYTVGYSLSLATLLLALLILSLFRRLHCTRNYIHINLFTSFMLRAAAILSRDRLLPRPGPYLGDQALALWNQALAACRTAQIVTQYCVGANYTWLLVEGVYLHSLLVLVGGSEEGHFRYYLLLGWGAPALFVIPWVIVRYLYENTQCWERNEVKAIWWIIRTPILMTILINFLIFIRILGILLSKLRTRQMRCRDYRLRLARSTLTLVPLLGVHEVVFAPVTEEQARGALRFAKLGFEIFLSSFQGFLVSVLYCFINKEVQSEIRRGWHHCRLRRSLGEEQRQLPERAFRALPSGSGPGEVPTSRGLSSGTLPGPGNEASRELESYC
# [2] = molecular target: Glucagon-like peptide 1 receptor (Homo sapiens, UniProt P43220); assay: Agonist activity at human GLP-1R expressed in CHO cells assessed as increase in cAMP production incubated for 30 mins by Eu-cAMP tracer based microplate reader analysis; assay type: functional, cell-based
# Glucagon-like peptide 1 receptor, sequence (P43220 whole entry): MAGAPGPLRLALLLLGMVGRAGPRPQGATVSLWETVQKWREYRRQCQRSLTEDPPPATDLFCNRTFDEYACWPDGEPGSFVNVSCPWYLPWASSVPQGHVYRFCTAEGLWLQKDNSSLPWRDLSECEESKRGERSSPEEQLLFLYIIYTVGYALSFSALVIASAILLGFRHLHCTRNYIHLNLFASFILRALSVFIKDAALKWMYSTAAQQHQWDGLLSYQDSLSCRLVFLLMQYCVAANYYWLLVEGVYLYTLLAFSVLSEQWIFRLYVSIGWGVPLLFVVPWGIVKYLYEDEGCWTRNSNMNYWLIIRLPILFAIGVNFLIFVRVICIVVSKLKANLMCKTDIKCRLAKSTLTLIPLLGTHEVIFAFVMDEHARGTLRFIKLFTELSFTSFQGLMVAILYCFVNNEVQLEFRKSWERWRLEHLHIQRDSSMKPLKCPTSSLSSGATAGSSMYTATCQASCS
smiles,measurement,setting,value
CC(C)C[C@H](NC(=O)[C@H](CC(C)C)NC(=O)[C@H](Cc1c[nH]c2ccccc12)NC(=O)[C@H](CCC(N)=O)NC(=O)[C@@H](NC(=O)[C@H](Cc1ccccc1)NC(=O)[C@H](CC(C)C)NC(=O)[C@H](CCCCN)NC(=O)[C@H](C)NC(=O)[C@H](C)NC(=O)[C@H](CCC(N)=O)NC(=O)[C@H](CSCC(=O)NCCCC[C@@H](NC(=O)CC[C@@H](NC(=O)CC[C@H](NC(=O)COCCOCCNC(=O)CCCCCCCCCCCCCCCCCCC(=O)O)C(=O)O)C(=O)O)C(=O)O)NC(=O)[C@H](CCC(=O)O)NC(=O)[C@H](CC(C)C)NC(=O)[C@H](Cc1ccc(O)cc1)NC(=O)[C@H](Cc1ccc(O)cc1)NC(=O)[C@H](CO)NC(=O)[C@H](Cc1ccc(O)cc1)NC(=O)[C@H](CC(=O)O)NC(=O)[C@H](CO)NC(=O)[C@@H](NC(=O)[C@H](Cc1ccccc1)NC(=O)[C@@H](NC(=O)CNC(=O)[C@H](CCC(=O)O)NC(=O)C(C)(C)NC(=O)[C@@H](N)Cc1ccc(O)cc1)[C@@H](C)O)[C@@H](C)O)C(C)C)C(=O)N[C@@H](C)C(=O)NCC(=O)NCC(=O)N1CCC[C@H]1C(=O)N[C@@H](CO)C(=O)N[C@@H](CO)C(=O)NCC(=O)N[C@@H](C)C(=O)N1CCC[C@H]1C(=O)N1CCC[C@H]1C(=O)N1CCC[C@H]1C(=O)N[C@@H](CO)C(N)=O (H-Y[Aib]EGTFTSDYSYYLEC(X7)QAAKLFVQWLLAGGPSSGAPPPS-NH2),pEC50,[1]; cho,9.70
same,pEC50,[2]; cho,9.29
CC(C)C[C@H](NC(=O)[C@H](CC(C)C)NC(=O)[C@H](Cc1c[nH]c2ccccc12)NC(=O)[C@H](CCC(N)=O)NC(=O)[C@@H](NC(=O)[C@H](Cc1ccccc1)NC(=O)[C@H](CC(C)C)NC(=O)[C@H](CCCCN)NC(=O)[C@H](C)NC(=O)[C@H](C)NC(=O)[C@H](CCC(N)=O)NC(=O)[C@H](CCCCN)NC(=O)[C@H](CCC(=O)O)NC(=O)[C@H](CC(C)C)NC(=O)[C@H](CSCC(=O)NCCCC[C@H](NC(=O)COCCOCCNC(=O)COCCOCCNC(=O)CC[C@H](NC(=O)CCCCCCCCCCCCCCCCC(=O)O)C(=O)O)C(=O)O)NC(=O)[C@H](Cc1ccc(O)cc1)NC(=O)[C@H](CO)NC(=O)[C@H](Cc1ccc(O)cc1)NC(=O)[C@H](CC(=O)O)NC(=O)[C@H](CO)NC(=O)[C@@H](NC(=O)[C@H](Cc1ccccc1)NC(=O)[C@@H](NC(=O)CNC(=O)[C@H](CCC(=O)O)NC(=O)C(C)(C)NC(=O)[C@@H](N)Cc1ccc(O)cc1)[C@@H](C)O)[C@@H](C)O)C(C)C)C(=O)N[C@@H](C)C(=O)NCC(=O)NCC(=O)N1CCC[C@H]1C(=O)N[C@@H](CO)C(=O)N[C@@H](CO)C(=O)NCC(=O)N[C@@H](C)C(=O)N1CCC[C@H]1C(=O)N1CCC[C@H]1C(=O)N1CCC[C@H]1C(=O)N[C@@H](CO)C(N)=O (H-Y[Aib]EGTFTSDYSYC(X8)LEKQAAKLFVQWLLAGGPSSGAPPPS-NH2),pEC50,[1],8.88
same,pEC50,[2],8.76
CC(C)C[C@H](NC(=O)[C@H](CC(C)C)NC(=O)[C@H](Cc1c[nH]c2ccccc12)NC(=O)[C@H](CCC(N)=O)NC(=O)[C@@H](NC(=O)[C@H](Cc1ccccc1)NC(=O)[C@H](CC(C)C)NC(=O)[C@H](CSCC(=O)NCCCC[C@H](NC(=O)COCCOCCNC(=O)COCCOCCNC(=O)CC[C@H](NC(=O)CCCCCCCCCCCCCCCCCCC(=O)O)C(=O)O)C(=O)O)NC(=O)[C@H](C)NC(=O)[C@H](C)NC(=O)[C@H](CCC(N)=O)NC(=O)[C@H](CCCCN)NC(=O)[C@H](CCC(=O)O)NC(=O)[C@H](CC(C)C)NC(=O)[C@H](Cc1ccc(O)cc1)NC(=O)[C@H](Cc1ccc(O)cc1)NC(=O)[C@H](CO)NC(=O)[C@H](Cc1ccc(O)cc1)NC(=O)[C@H](CC(=O)O)NC(=O)[C@H](CO)NC(=O)[C@@H](NC(=O)[C@H](Cc1ccccc1)NC(=O)[C@@H](NC(=O)CNC(=O)[C@H](CCC(=O)O)NC(=O)C(C)(C)NC(=O)[C@@H](N)Cc1ccc(O)cc1)[C@@H](C)O)[C@@H](C)O)C(C)C)C(=O)N[C@@H](C)C(=O)NCC(=O)NCC(=O)N1CCC[C@H]1C(=O)N[C@@H](CO)C(=O)N[C@@H](CO)C(=O)NCC(=O)N[C@@H](C)C(=O)N1CCC[C@H]1C(=O)N1CCC[C@H]1C(=O)N1CCC[C@H]1C(=O)N[C@@H](CO)C(N)=O (H-Y[Aib]EGTFTSDYSYYLEKQAAC(X5)LFVQWLLAGGPSSGAPPPS-NH2),pEC50,[1],8.88
same,pEC50,[2],9.31
CC(C)C[C@H](NC(=O)[C@H](CCCCN)NC(=O)[C@H](C)NC(=O)[C@H](C)NC(=O)[C@H](CCC(N)=O)NC(=O)[C@H](CCCCN)NC(=O)[C@H](CCC(=O)O)NC(=O)[C@H](CC(C)C)NC(=O)[C@H](Cc1ccc(O)cc1)NC(=O)[C@H](Cc1ccc(O)cc1)NC(=O)[C@H](CO)NC(=O)[C@H](Cc1ccc(O)cc1)NC(=O)[C@H](CC(=O)O)NC(=O)[C@H](CO)NC(=O)[C@@H](NC(=O)[C@H](Cc1ccccc1)NC(=O)[C@@H](NC(=O)CNC(=O)[C@H](CCC(=O)O)NC(=O)C(C)(C)NC(=O)[C@@H](N)Cc1ccc(O)cc1)[C@@H](C)O)[C@@H](C)O)C(=O)N[C@@H](Cc1ccccc1)C(=O)N[C@H](C(=O)N[C@@H](CCC(N)=O)C(=O)N[C@@H](Cc1c[nH]c2ccccc12)C(=O)N[C@@H](CC(C)C)C(=O)N[C@@H](CS)C(=O)N[C@@H](C)C(=O)NCC(=O)NCC(=O)N1CCC[C@H]1C(=O)N[C@@H](CO)C(=O)N[C@@H](CO)C(=O)NCC(=O)N[C@@H](C)C(=O)N1CCC[C@H]1C(=O)N1CCC[C@H]1C(=O)N1CCC[C@H]1C(=O)N[C@@H](CO)C(N)=O)C(C)C (H-Y[Aib]EGTFTSDYSYYLEKQAAKLFVQWLCAGGPSSGAPPPS-NH2),pEC50,[1],8.63
same,pEC50,[2],8.55
CC(C)C[C@H](NC(=O)[C@H](CC(C)C)NC(=O)[C@H](Cc1c[nH]c2ccccc12)NC(=O)[C@H](CCC(N)=O)NC(=O)[C@@H](NC(=O)[C@H](Cc1ccccc1)NC(=O)[C@H](CC(C)C)NC(=O)[C@H](CS)NC(=O)[C@H](C)NC(=O)[C@H](C)NC(=O)[C@H](CCC(N)=O)NC(=O)[C@H](CCCCN)NC(=O)[C@H](CCC(=O)O)NC(=O)[C@H](CC(C)C)NC(=O)[C@H](Cc1ccc(O)cc1)NC(=O)[C@H](Cc1ccc(O)cc1)NC(=O)[C@H](CO)NC(=O)[C@H](Cc1ccc(O)cc1)NC(=O)[C@H](CC(=O)O)NC(=O)[C@H](CO)NC(=O)[C@@H](NC(=O)[C@H](Cc1ccccc1)NC(=O)[C@@H](NC(=O)CNC(=O)[C@H](CCC(=O)O)NC(=O)C(C)(C)NC(=O)[C@@H](N)Cc1ccc(O)cc1)[C@@H](C)O)[C@@H](C)O)C(C)C)C(=O)N[C@@H](C)C(=O)NCC(=O)NCC(=O)N1CCC[C@H]1C(=O)N[C@@H](CO)C(=O)N[C@@H](CO)C(=O)NCC(=O)N[C@@H](C)C(=O)N1CCC[C@H]1C(=O)N1CCC[C@H]1C(=O)N1CCC[C@H]1C(=O)N[C@@H](CO)C(N)=O (H-Y[Aib]EGTFTSDYSYYLEKQAACLFVQWLLAGGPSSGAPPPS-NH2),pEC50,[1],9.22
same,pEC50,[2],9.54
CC(C)C[C@H](NC(=O)[C@H](CC(C)C)NC(=O)[C@H](Cc1c[nH]c2ccccc12)NC(=O)[C@H](CCC(N)=O)NC(=O)[C@@H](NC(=O)[C@H](Cc1ccccc1)NC(=O)[C@H](CC(C)C)NC(=O)[C@H](CCCCN)NC(=O)[C@H](C)NC(=O)[C@H](C)NC(=O)[C@H](CCC(N)=O)NC(=O)[C@H](CCCCN)NC(=O)[C@H](CCC(=O)O)NC(=O)[C@H](CC(C)C)NC(=O)[C@H](CS)NC(=O)[C@H](Cc1ccc(O)cc1)NC(=O)[C@H](CO)NC(=O)[C@H](Cc1ccc(O)cc1)NC(=O)[C@H](CC(=O)O)NC(=O)[C@H](CO)NC(=O)[C@@H](NC(=O)[C@H](Cc1ccccc1)NC(=O)[C@@H](NC(=O)CNC(=O)[C@H](CCC(=O)O)NC(=O)C(C)(C)NC(=O)[C@@H](N)Cc1ccc(O)cc1)[C@@H](C)O)[C@@H](C)O)C(C)C)C(=O)N[C@@H](C)C(=O)NCC(=O)NCC(=O)N1CCC[C@H]1C(=O)N[C@@H](CO)C(=O)N[C@@H](CO)C(=O)NCC(=O)N[C@@H](C)C(=O)N1CCC[C@H]1C(=O)N1CCC[C@H]1C(=O)N1CCC[C@H]1C(=O)N[C@@H](CO)C(N)=O (H-Y[Aib]EGTFTSDYSYCLEKQAAKLFVQWLLAGGPSSGAPPPS-NH2),pEC50,[1],9.41
same,pEC50,[2],9.38
CC(C)C[C@H](NC(=O)[C@H](CC(C)C)NC(=O)[C@H](Cc1c[nH]c2ccccc12)NC(=O)[C@H](CCC(N)=O)NC(=O)[C@@H](NC(=O)[C@H](Cc1ccccc1)NC(=O)[C@H](CS)NC(=O)[C@H](CCCCN)NC(=O)[C@H](C)NC(=O)[C@H](C)NC(=O)[C@H](CCC(N)=O)NC(=O)[C@H](CCCCN)NC(=O)[C@H](CCC(=O)O)NC(=O)[C@H](CC(C)C)NC(=O)[C@H](Cc1ccc(O)cc1)NC(=O)[C@H](Cc1ccc(O)cc1)NC(=O)[C@H](CO)NC(=O)[C@H](Cc1ccc(O)cc1)NC(=O)[C@H](CC(=O)O)NC(=O)[C@H](CO)NC(=O)[C@@H](NC(=O)[C@H](Cc1ccccc1)NC(=O)[C@@H](NC(=O)CNC(=O)[C@H](CCC(=O)O)NC(=O)C(C)(C)NC(=O)[C@@H](N)Cc1ccc(O)cc1)[C@@H](C)O)[C@@H](C)O)C(C)C)C(=O)N[C@@H](C)C(=O)NCC(=O)NCC(=O)N1CCC[C@H]1C(=O)N[C@@H](CO)C(=O)N[C@@H](CO)C(=O)NCC(=O)N[C@@H](C)C(=O)N1CCC[C@H]1C(=O)N1CCC[C@H]1C(=O)N1CCC[C@H]1C(=O)N[C@@H](CO)C(N)=O (H-Y[Aib]EGTFTSDYSYYLEKQAAKCFVQWLLAGGPSSGAPPPS-NH2),pEC50,[1],7.83
same,pEC50,[2],8.19
